Experimental data: ChEMBL document CHEMBL4385653, “Design, synthesis, biological evaluation of benzoyl amide derivatives containing nitrogen heterocyclic ring as potential VEGFR-2 inhibitors” (Bioorg Med Chem, 2019)

Legend:
MCF7 [1] = assay: Suppression of mitochondrial membrane potential in human MCF7 cells assessed as green fluorescent cells level at 2 uM incubated for 12 hrs by rhodamine-123 dye based flow cytometry analysis (reference value: 0.29%); assay type: functional
MCF7 [2] = assay: Inhibition of cell migration of human MCF7 cells assessed as relative distance between the edges of the wound at 4 uM incubated for 12 hrs by wound healing assay (reference value: 87.55%); assay type: functional; design: scale not given: the % may be the effect or the level left
A549 = assay: Antiproliferative activity against human A549 cells assessed as inhibition of cell proliferation incubated for 48 hrs by MTT assay; assay type: functional, cell-based; details: A549, 48 h
MCF7 [3] = assay: Induction of apoptosis in human MCF7 cells assessed as late apoptotic cells level at 4 uM incubated for 12 hrs by Annexin V-FITC/PI double staining based flow cytometry analysis (reference value: 3.1%); assay type: functional
MCF7 [4] = assay: Induction of apoptosis in human MCF7 cells assessed as late apoptotic cells level at 8 uM incubated for 24 hrs by Annexin V-FITC/PI double staining based flow cytometry analysis (reference value: 10.1%); assay type: functional
MCF7 [5] = assay: Antiproliferative activity against human MCF7 cells assessed as inhibition of cell proliferation incubated for 48 hrs by MTT assay; assay type: functional, cell-based; details: MCF7, 48 h
MCF7 [6] = assay: Induction of apoptosis in human MCF7 cells assessed as viable cells level at 4 uM incubated for 36 hrs by Annexin V-FITC/PI double staining based flow cytometry analysis (reference value: 89%); assay type: functional
MCF7 [7] = assay: Induction of apoptosis in human MCF7 cells assessed as late apoptotic cells level at 2 uM incubated for 24 hrs by Annexin V-FITC/PI double staining based flow cytometry analysis (reference value: 10.1%); assay type: functional
MCF7 [8] = assay: Induction of apoptosis in human MCF7 cells assessed as early apoptotic cells level at 4 uM incubated for 24 hrs by Annexin V-FITC/PI double staining based flow cytometry analysis (reference value: 6.37%); assay type: functional
MCF7 [9] = assay: Induction of apoptosis in human MCF7 cells assessed as late necrotic cells level at 4 uM incubated for 36 hrs by Annexin V-FITC/PI double staining based flow cytometry analysis (reference value: 6.88%); assay type: functional

- IC50 (A549): 15.6 µM
- IC50 (MCF7 [5]): 1.08 µM
Compound: Cc1ccc(-n2cc(NC(=O)c3cccc(NS(=O)(=O)c4ccc(Cl)cc4)c3)cn2)cc1
- Activity (MCF7 [1]): 12.4%
- Activity (MCF7 [2]): 90.9%
- Activity (MCF7 [3]): 11.3%
- Activity (MCF7 [4]): 45.2%
- Activity (MCF7 [6]): 47.6%
- Activity (MCF7 [7]): 17.7%
- Activity (MCF7 [8]): 11.9%
- Activity (MCF7 [9]): 1.03%
